Test: pH of aqueous solution of the crystalline salt
Type: physicochemical
Conditions: 14.00 mg crystalline salt in 140 microliters of water
Description: Gabapentin (0.55857 g) and ethanedisulfonic acid (0.62940 g) were transferred into a 20 mL scintillation vial. Water (1.5 mL) was added and the mixture was heated to 85 deg. C. to dissolve all of the solids. The solution was filtered through a 0.2 micron filter into a new 20 mL scintillation vial. The vial was capped and placed in the refrigerator (2-4 deg. C.) for 2 hours. The resulting crystals were collected by vacuum filtration (345.83 mg) and analyzed by PXRD. Upon analysis, the crystals were determined to be gabapentin ethanedisulfonic acid salt. A small amount of the crystalline salt (14.00 mg) was weighted into a 3 mL vial and 140 microliters of water was added. The pH of the resulting solution was determined to be 1.2. […] The salt can be characterized by any one, any two, any three, any four, any five, or any six or more of the peaks in FIG. 13 including, but not limited to, 6.0, 11.51, 15.11, 16.17, 17.31, 17.85, 19.73, 20.19, 22.21, 24.63, 26.73, and 28.47 degrees 2-theta.

gabapentin ethanedisulfonic acid salt
pH of the resulting solution: 1.2
